Measured values as given in ChEMBL document CHEMBL3885881, “DrugMatrix”.

Species: Rattus norvegicus
Test: DrugMatrix - Regimen: Daily Repeat
Assay type: toxicity, organism-based, Sprague-Dawley
Parameters: regimen Daily Repeat, gender Male, age 6-8 weeks
Conditions: in vivo, po, route oral GAVAGE, vehicle 100 % WATER; for ABSOLUTE BASOPHIL / ABSOLUTE EOSINOPHIL / ABSOLUTE LYMPHOCYTE / ABSOLUTE MONOCYTE / ABSOLUTE SEGMENTED NEUTROPHIL / BASOPHIL / EOSINOPHIL / ERYTHROCYTE COUNT / HEMATOCRIT / HEMOGLOBIN / LEUKOCYTE COUNT / LYMPHOCYTE / MEAN CORPUSCULAR HEMOGLOBIN / MEAN CORPUSCULAR HEMOGLOBIN CONCENTRATION / MEAN CORPUSCULAR VOLUME / MONOCYTE / NEUTROPHIL / NUCLEATED RED BLOOD CELLS / PLATELET COUNT: tissue Blood; for ALANINE AMINOTRANSFERASE / ALBUMIN / ALKALINE PHOSPHATASE / ASPARTATE AMINOTRANSFERASE / BLOOD UREA NITROGEN / CARBON DIOXIDE / CHLORIDE / CHOLESTEROL / CREATINE PHOSPHOKINASE / CREATININE / GLUCOSE / LACTATE DEHYDROGENASE / LIPASE / PHOSPHORUS / POTASSIUM / SODIUM / TOTAL BILIRUBIN / TOTAL PROTEIN / URIC ACID: tissue Plasma
[1] = 50 mg/kg, 120 h, dose level Low, time 5 day
[2] = 1500 mg/kg, 72 h, dose level High, time 3 day
[3] = 1500 mg/kg, 120 h, dose level High, time 5 day

Compound: Cc1ncc([N+](=O)[O-])n1CCO [METRONIDAZOLE]
- ABSOLUTE BASOPHIL [1]: 0 CELLS/uL
- ABSOLUTE EOSINOPHIL [1]: 0 CELLS/uL
- ABSOLUTE LYMPHOCYTE [1]: 11707 CELLS/uL
- ABSOLUTE MONOCYTE [1]: 0 CELLS/uL
- ABSOLUTE SEGMENTED NEUTROPHIL [1]: 459.67 CELLS/uL
- BASOPHIL [1]: 0%
- EOSINOPHIL [1]: 0%
- ERYTHROCYTE COUNT [1]: 6 x10E6/uL
- HEMATOCRIT [1]: 36.43%
- HEMOGLOBIN [1]: 13.8 G/DL
- LEUKOCYTE COUNT [1]: 12.17 x10E3/uL
- LYMPHOCYTE [1]: 96.33%
- MEAN CORPUSCULAR HEMOGLOBIN [1]: 23.03 pg
- MEAN CORPUSCULAR HEMOGLOBIN CONCENTRATION [1]: 37.87 G/DL
- MEAN CORPUSCULAR VOLUME [1]: 60.9 fL
- MONOCYTE [1]: 0%
- NEUTROPHIL [1]: 3.67%
- NUCLEATED RED BLOOD CELLS [1]: 0.33 /100WBC
- PLATELET COUNT [1]: 986 x10E3/uL
- ALANINE AMINOTRANSFERASE [1]: 61 u/L
- ALBUMIN [1]: 4.07 G/DL
- ALKALINE PHOSPHATASE [1]: 338 u/L
- ASPARTATE AMINOTRANSFERASE [1]: 108.33 u/L
- BLOOD UREA NITROGEN [1]: 13.67 mg/dL
- CARBON DIOXIDE [1]: 30.67 mmol/L
- CHLORIDE [1]: 100.33 MEQ/L
- CHOLESTEROL [1]: 67 mg/dL
- CREATINE PHOSPHOKINASE [1]: 1022 u/L
- CREATININE [1]: 0.16 mg/dL
- GLUCOSE [1]: 151.33 mg/dL
- LACTATE DEHYDROGENASE [1]: 207.67 u/L
- LIPASE [1]: 10.67 u/L
- PHOSPHORUS [1]: 11.73 mg/dL
- POTASSIUM [1]: 5.65 MEQ/L
- SODIUM [1]: 145.1 MEQ/L
- TOTAL BILIRUBIN [1]: 0.13 mg/dL
- TOTAL PROTEIN [1]: 6.17 G/DL
- URIC ACID [1]: 1 mg/dL
- ABSOLUTE BASOPHIL [2]: 0 CELLS/uL
- ABSOLUTE EOSINOPHIL [2]: 49.33 CELLS/uL
- ABSOLUTE LYMPHOCYTE [2]: 11170.67 CELLS/uL
- ABSOLUTE MONOCYTE [2]: 122.67 CELLS/uL
- ABSOLUTE SEGMENTED NEUTROPHIL [2]: 924 CELLS/uL
- BASOPHIL [2]: 0%
- EOSINOPHIL [2]: 0.33%
- ERYTHROCYTE COUNT [2]: 5.75 x10E6/uL
- HEMATOCRIT [2]: 36.7%
- HEMOGLOBIN [2]: 14.07 G/DL
- LEUKOCYTE COUNT [2]: 12.27 x10E3/uL
- LYMPHOCYTE [2]: 91.33%
- MEAN CORPUSCULAR HEMOGLOBIN [2]: 24.47 pg
- MEAN CORPUSCULAR HEMOGLOBIN CONCENTRATION [2]: 38.33 G/DL
- MEAN CORPUSCULAR VOLUME [2]: 63.8 fL
- MONOCYTE [2]: 1%
- NEUTROPHIL [2]: 7.33%
- NUCLEATED RED BLOOD CELLS [2]: 0 /100WBC
- PLATELET COUNT [2]: 1295.67 x10E3/uL
- ALANINE AMINOTRANSFERASE [2]: 71 u/L
- ALBUMIN [2]: 4.03 G/DL
- ALKALINE PHOSPHATASE [2]: 332 u/L
- ASPARTATE AMINOTRANSFERASE [2]: 84.33 u/L
- BLOOD UREA NITROGEN [2]: 15 mg/dL
- CARBON DIOXIDE [2]: 32.33 mmol/L
- CHLORIDE [2]: 102 MEQ/L
- CHOLESTEROL [2]: 87 mg/dL
- CREATINE PHOSPHOKINASE [2]: 331.67 u/L
- CREATININE [2]: 0.23 mg/dL
- GLUCOSE [2]: 134.67 mg/dL
- LACTATE DEHYDROGENASE [2]: 176.33 u/L
- LIPASE [2]: 12 u/L
- PHOSPHORUS [2]: 10.83 mg/dL
- POTASSIUM [2]: 5.73 MEQ/L
- SODIUM [2]: 146.4 MEQ/L
- TOTAL BILIRUBIN [2]: 0.1 mg/dL
- TOTAL PROTEIN [2]: 5.9 G/DL
- URIC ACID [2]: 0.4 mg/dL
- ABSOLUTE BASOPHIL [3]: 0 CELLS/uL
- ABSOLUTE EOSINOPHIL [3]: 0 CELLS/uL
- ABSOLUTE LYMPHOCYTE [3]: 10466.67 CELLS/uL
- ABSOLUTE MONOCYTE [3]: 94 CELLS/uL
- ABSOLUTE SEGMENTED NEUTROPHIL [3]: 906 CELLS/uL
- BASOPHIL [3]: 0%
- EOSINOPHIL [3]: 0%
- ERYTHROCYTE COUNT [3]: 6.09 x10E6/uL
- HEMATOCRIT [3]: 39.27%
- HEMOGLOBIN [3]: 15.2 G/DL
- LEUKOCYTE COUNT [3]: 11.47 x10E3/uL
- LYMPHOCYTE [3]: 91.67%
- MEAN CORPUSCULAR HEMOGLOBIN [3]: 25.03 pg
- MEAN CORPUSCULAR HEMOGLOBIN CONCENTRATION [3]: 38.73 G/DL
- MEAN CORPUSCULAR VOLUME [3]: 64.6 fL
- MONOCYTE [3]: 1%
- NEUTROPHIL [3]: 7.33%
- NUCLEATED RED BLOOD CELLS [3]: 0 /100WBC
- PLATELET COUNT [3]: 962 x10E3/uL
- ALANINE AMINOTRANSFERASE [3]: 79.33 u/L
- ALBUMIN [3]: 4.3 G/DL
- ALKALINE PHOSPHATASE [3]: 365 u/L
- ASPARTATE AMINOTRANSFERASE [3]: 91.67 u/L
- BLOOD UREA NITROGEN [3]: 17.67 mg/dL
- CARBON DIOXIDE [3]: 32.33 mmol/L
- CHLORIDE [3]: 101.67 MEQ/L
- CHOLESTEROL [3]: 66.33 mg/dL
- CREATINE PHOSPHOKINASE [3]: 679.67 u/L
- CREATININE [3]: 0.18 mg/dL
- GLUCOSE [3]: 138.33 mg/dL
- LACTATE DEHYDROGENASE [3]: 145.33 u/L
- LIPASE [3]: 11 u/L
- PHOSPHORUS [3]: 11.17 mg/dL
- POTASSIUM [3]: 6.28 MEQ/L
- SODIUM [3]: 147.87 MEQ/L
- TOTAL BILIRUBIN [3]: 0.13 mg/dL
- TOTAL PROTEIN [3]: 6.17 G/DL
- URIC ACID [3]: 0.83 mg/dL
